Assays:
HSA = conditions: data from the literature ref 32; cited from earlier work
[1] = target: T1, human serum albumin (HSA) (Homo sapiens, UniProt P02768); assay: Equilibrium dialysis: individual and simultaneous binding (displacement) of 6-MP and site I markers to HSA
T1 construct: Human serum albumin (HSA), fraction V, crystallized and lyophilized; purchased Biomed (Lublin, Poland)
Protocol: Equilibrium dialysis experiment was performed with bags of 5 cm length made from cellulose tubing, 25 mm diameter when inflated (Dialysis Tubing Cellulose Membranes with molecular weight cut-off of 12 kDa, Sigma Aldrich Co). […] The tubes were closed with parafilm, and were stirred constantly at 20 rotations per minute, at 23 °C. A solution of drug(s) in the compartment B and a solution of albumin in the compartment A were allowed to equilibrate. […] The volumes of the solutions in two compartments remained constant during the dialysis procedure and were not corrected. […] Dialysis with each ligand or mixture of ligands was performed in fivefold and the average value of C b was used as binding data. Protein concentration was 1 × 10^−5 M and ligands concentration was 0.8 × 10^−5 M.
The free-ligands concentrations in compartment B at the beginning of the dialysis and after equilibrium were determined by HPLC. […] A column of LiChrospher 100 RP-18 (5 μm in 4 × 250 mm) (Merck KGaA) was used as the stationary phase. […] All solvents were filtered and degassed prior to use. The injection volume was 50 μL in all the cases. The free ligand concentration was determined using a calibration curve obtained from the concentration of dialyzed ligand in the absence of albumin.
The bound ligand concentration (Cb) was calculated by estimation of free-ligand concentration (Cf) according to the equation [57]:1 [drawing 3] where CL(b) was concentration of bound ligand, CL(f) was final concentration of ligand in buffer compartment and CL(0) was starting concentration of ligand (total ligand concentration before equilibrium dialysis).
The percent binding before and after displacement was compared by using a two-way analysis of variance for balanced data. The confidence intervals based on the residual variance were computed for each pairs of bound fraction before and after displacement.

[2] = design: method as in earlier work; conditions: cited from earlier work

T1 sequence (P02768 25-609): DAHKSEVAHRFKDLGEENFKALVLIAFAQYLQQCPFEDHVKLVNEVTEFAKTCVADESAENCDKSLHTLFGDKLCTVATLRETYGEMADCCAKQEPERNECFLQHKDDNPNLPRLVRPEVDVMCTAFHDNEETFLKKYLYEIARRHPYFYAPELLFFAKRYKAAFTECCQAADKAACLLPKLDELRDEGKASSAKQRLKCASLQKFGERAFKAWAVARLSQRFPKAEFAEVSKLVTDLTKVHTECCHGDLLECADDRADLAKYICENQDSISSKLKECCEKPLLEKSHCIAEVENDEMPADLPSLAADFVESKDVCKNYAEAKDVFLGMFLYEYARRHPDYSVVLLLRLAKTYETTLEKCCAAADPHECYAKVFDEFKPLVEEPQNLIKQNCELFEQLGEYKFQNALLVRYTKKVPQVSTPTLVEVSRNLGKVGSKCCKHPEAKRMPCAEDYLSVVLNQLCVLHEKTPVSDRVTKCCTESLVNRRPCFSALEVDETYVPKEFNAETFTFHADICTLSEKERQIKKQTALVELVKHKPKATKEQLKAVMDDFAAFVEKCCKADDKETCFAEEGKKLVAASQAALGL

decrease of free fraction (Δ%) of ABE ([1]; by addition of 6-MP, versus ABE alone, p < 0.05)	Kd ([1]; from fb by Eq. (6), before displacement, HSA 1 × 10^−5 M, read-out: Primary association constant log Kexp^HSA (converted))	Bound ligand fraction (fb%) before displacement ([1]; individual binding, HSA 1 × 10^−5 M, ligand 0.8 × 10^−5 M, pH 7.4, 23 °C)	Bound ligand fraction (fb%) of site marker after displacement ([1]; simultaneous binding, in presence of 6-MP, HSA 1 × 10^−5 M, ligands 0.8 × 10^−5 M)	Compound	Primary association constant log Klit^HSA (HSA)	bound to serum proteins ([2]; humans, of the administered dose ref 39)	half-life in plasma ([2]; oral dose, humans ref 39)
3.5%	17 µM	37.3 ± 0.7%	39.5 ± 0.6%	CCCCOC(=O)c1ccc(N)cc1 [ABE, n-butyl p-aminobenzoate]	4.45		
				Sc1ncnc2nc[nH]c12 [6-MP, 6-Mercaptopurine]		approximately 19%	20 to 45 min

Source: article PMC3483484 (The Protein Journal, 2012)
